Data as given in US20030219427A1, “TPL-2/COT kinase and methods of use” (priority 1998, published 2003).
“Also recorded” adds a separate entry of the source. Peptide text beside a SMILES is read from it. * marks the point of attachment. Cbz = O=C(OCc1ccccc1)*

Key:
[1] = biological target: T1, TPL-2/COT kinase (FLAG-COT (30-397)) (Homo sapiens, UniProt P41279); assay: TPL-2/COT kinase assay and inhibitor screening (COT autophosphorylation and phosphorylation of GST-IκB-α); assay type: biochemical; conditions: for IC50: retested at 100 μM, 10 μM and 1 μM, compared to DMSO vehicle control, read-out: IC50 for TPL-2 inhibition (inhibits TPL-2 kinase activity by 50%); for inhibitory activity on COT autophosphorylation and phosphorylation of a COT target (IκB-α): initial screen at 100 μM in duplicate
T1 construct: made in house; host or cells: human 293A cells, transient transfection of a pcDNA vector, anti-FLAG immunoprecipitation
Description: FLAG-tagged COT protein was expressed in 293A cells by transfection. Typically, 24 h before transfection, human 293A cells (Quantum) were plated at 2×10^6 cells per 10 cm plate. A transfection mixture was prepared comprising 60 μl Lipofectamine (Gibco) and 800 μl Optimem (Gibco) in 15 ml tube. In. a separate tube, 8 μg of DNA encoding a FLAG-tagged COT(30-397) gene in a pcDNA vector was added to 800 μl Optimem. The contents of each tube were then mixed gently with a pipette, and allowed to incubate at room temperature for 25 min. Cells were washed once with Optimem and incubated with the transfection mixture and 6.4 ml of Optimem and allowed to incubate 5 h at 37° C. and 5% CO2. Cells were then incubated with 8 ml DMEM+10% FBS+L-glutamine on day 1, DMEM+5% FBS+L-glutamine on day 2 and harvested 48 h post-transfection.
Transfected 293A cells expressing FLAG-COT (30-397) were lysed on ice for 15 min in lysis buffer (1% Triton X-100, 50 mM Tris-HCl pH 7.5, 150 mM NaCl, 1 mM EDTA, 1 mM EGTA, 20 mM NaF, 10 mM Na4P2O7, 50 mM Na3VO4 plus Complete protease inhibitors (Boehringer)) and lysates were centrifuged (14,000 rpm for 10 min at 4° C.) and supernatants were collected. Immunoprecipitations were performed using FLAG Ab gel (Sigma) at 50 μg Ab per ml of lysate for 3 h at 4° C. with mixing. Gel beads were washed at 4° C. twice with lysis buffer and then twice with wash buffer (50 mM Tris-HCl pH 7.5, 100 mM NaCl, 0.1 mM EGTA and 1 mM DTT). Gel beads were then resuspended in wash buffer and aliquoted into tubes for various kinase reactions.
A TPL-2/COT kinase assay was used to screen various candidate TPL-2/COT kinase inhibitors. The kinase assay was performed a follows. A TPL-2 kinase (i.e., FLAG-COT (30-397)) bound on gel beads was incubated with 2 μg of a target polypeptide substrate (i.e., GST IκB-α (1-50) (Boston Biologicals) in kinase buffer (50 mM Tris-HCl pH 7.5, 10 mM MgCl2, 1 mM EGTA, 2 mM DTT and 0.01% Brij 35) in the presence of an appropriate radiolabel (30 μM ATP and 5 μCi γ-^32P-ATP (Amersham)) for 10 min at 25° C. Reactions were performed in the presence or absence of candidate compounds for inhibitor activity that were prepared as 10 mM stock solutions in 100% DMSO. The test compounds were added to the kinase reaction mixture immediately before addition of […]. Reactions were stopped by the addition of 5×SDS sample buffer, heating at 100° C. for 3 min and supernatants were collected using centrifugation. The autophosphorylation of COT and phosphorylation of the target polypeptide, i.e., GST-IκB-α were analyzed by gel electrophoresis (10% SDS-PAGE) followed by transfer to nitrocellulose membranes and autoradiography. As a control to confirm equivalent levels of FLAG-COT(30-397) and GST-IκB-α proteins were used in the different kinase reactions and also equivalent gel loading, immunoblots were performed with anti-FLAG and anti-GST antibodies, respectively, on the same membranes used for autoradiography. Inhibition of COT kinase activity, either autophosphorylation activity or phosphorylation of the target polypeptide GST-IκB-α was quantitated by scanning of autoradiographs (FIG. 13). Compounds that altered the level of these activities were further analyzed as described below.
As similarly described above, a TPL-2 polypeptide expressed in insect cells was tested for kinase activity using a target polypeptide in the presence or absence of a candidate modulator compound. […]

[2] = system: TPL-2-induced myc-p105 proteolysis in 3T3 cells; assay: Pulse-chase metabolic labeling of TPL-2-induced myc-p105 proteolysis; assay type: cell-based
Description: Pulse-chase metabolic labeling is performed to determine whether TPL-2 regulates the proteolysis of myc-p105 in 3T3 fibroblasts. For pulse-chase metabolic labeling, NIH-3T3 fibroblasts are transiently transfected using LipofectAMINE (Gibco-BRL) (Huby, et al., (1997) J. Cell. Biol. 137, 1639-1649). Preparation of cytoplasmic and nuclear fractions is performed as described (Watanabe, et al., (1997)
EMBO J. 16, 3609-3620). For pulse-chase metabolic labeling, 2.7×10^5 3T3 cells per 60 mm dish (Nunc) are transfected with the indicated expression vectors. After 24 h, cells are washed and cultured in Met/Cys-free medium for 1 h. Cells are then labeled with 145 MBq of [^35S]-Met/[^35S]-Cys (Pro-Mix, Amersham-Pharmacia Biotech) per dish for 30 min and after washing, chased in complete medium for the indicated times. […] MG132 proteasome inhibitor (Biomol Research labs) is added at […] during the last 15 min of the Met/Cys starvation period and is maintain throughout the chase. Labeled bands are quantified by laser densitometry using a Molecular Dynamics Personal Densitometer. All pulse-chase experiments are performed on at least two occasions with similar results.
The effect of the peptide aldehyde MG132, a potent inhibitor of the proteasome, is determined to investigate whether myc-p105 proteolysis induced by TPL-2 is mediated by the proteasome. […]

[3] = biological target: Myc-TPL-2ΔC (Homo sapiens (Human), UniProt P41279 1-397); assay: cell-based or functional assay
[4] = biological target: Myc-TPL-2 (Homo sapiens (Human), UniProt P41279 1-467); assay: cell-based or functional assay
[5] = biological target: T2, Myc-Raf1(CAAX) MEK kinase activity (Homo sapiens, UniProt P04049); assay: In vitro MEK kinase assay, activated Raf1; assay type: biochemical
T2 construct: CAAX membrane-targeting motif (C); made in house

[6] = biological target: T3, HA-p105(369-969) (Homo sapiens (Human), UniProt P19838 368-968); assay: co-expression in Sf9 cells, purification of the complex from lysates
T3 construct: also called p105?N
T3 sequence: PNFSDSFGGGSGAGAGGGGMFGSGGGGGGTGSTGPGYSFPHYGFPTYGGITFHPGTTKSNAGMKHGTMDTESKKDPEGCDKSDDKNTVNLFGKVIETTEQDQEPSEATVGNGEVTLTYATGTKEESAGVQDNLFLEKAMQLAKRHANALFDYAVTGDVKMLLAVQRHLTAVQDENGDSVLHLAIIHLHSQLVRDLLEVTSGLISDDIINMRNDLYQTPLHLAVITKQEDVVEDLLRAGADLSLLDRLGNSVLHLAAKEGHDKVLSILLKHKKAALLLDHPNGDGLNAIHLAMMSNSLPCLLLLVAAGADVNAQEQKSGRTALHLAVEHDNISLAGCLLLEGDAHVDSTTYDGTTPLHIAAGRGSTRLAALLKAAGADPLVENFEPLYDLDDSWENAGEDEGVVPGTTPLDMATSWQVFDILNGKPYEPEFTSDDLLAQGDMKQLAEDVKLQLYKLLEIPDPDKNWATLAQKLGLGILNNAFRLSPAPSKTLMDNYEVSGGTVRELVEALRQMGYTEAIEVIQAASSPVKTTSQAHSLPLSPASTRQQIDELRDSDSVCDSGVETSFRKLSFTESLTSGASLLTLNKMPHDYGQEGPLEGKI

Molecule: c1ccc(Oc2ccc3nccc(Nc4ccc(Sc5ccccc5)cc4)c3c2)cc1 [N-(6-phenoxy-4-quinolyl)-N-[4-(phenylsulfanyl)phenyl]amine]
- IC50 [1]: 50 µM

Molecule: CC(C)C[C@@H](C=O)NC(=O)[C@H](CC(C)C)NC(=O)[C@H](CC(C)C)NC(=O)OCc1ccccc1 [MG132] (Cbz-Leu-Leu-Leu-aldehyde)
- effect on TPL-2-induced increased turnover (proteolysis) of myc-p105 ([2]; 3T3 cells co-transfected with myc-p105 and TPL-2, drug maintained throughout chase): blocks increased turnover of myc-p105
- effect on production of myc-p50 ([2]; TPL-2 co-expressing 3T3 cells, during the chase): completely prevents production of myc-p50; also recorded: completely blocked the production of myc-p50

Molecule: C[S+]([O-])c1ccc(-c2nc(-c3ccncc3)c(-c3ccc(F)cc3)[nH]2)cc1 (stereo not drawn) [SB 203580]
- inhibitory activity on COT autophosphorylation and phosphorylation of a COT target (IκB-α) [1]: little or no inhibitory activity

Molecule: CCOC(=O)c1cnc2c(c1Nc1ccc(Sc3ccccc3)cc1)C(=O)CCC2 [ethyl 5-oxo-4-[4-(phenylsulfanyl)anilino]-5,6,7,8-tetrahydro-3-quinolinecarboxylate]
- IC50 [1]: 10 µM

Molecule: COc1cccc(-c2cc(=O)c3ccccc3o2)c1N [PD98059]
- inhibitory activity on COT autophosphorylation and phosphorylation of a COT target (IκB-α) [1]: little or no inhibitory activity

Molecule: CN[C@@H]1C[C@H]2O[C@@](C)([C@@H]1OC)n1c3ccccc3c3c4c(c5c6ccccc6n2c5c31)C(=O)NC4 [staurosporine]
- inhibitory activity on COT autophosphorylation and phosphorylation of a COT target (IκB-α) [1]: little or no inhibitory activity

B1: HA-p105 (other, not shown: small tags and cut ends)
chain: MAEDDPYLGRPEQMFHLDPSLTHTIFNPEVFQPQMALPTADGPYLQILEQPKQRGFRFRYVCEGPSHGGLPGASSEKNKKSYPQVKICNYVGPAKVIVQLVTNGKNIHLHAHSLVGKHCEDGICTVTAGPKDMVVGFANLGILHVTKKKVFETLEARMTEACIRGYNPGLLVHPDLAYLQAEGGGDRQLGDREKELIRQAALQQTKEMDLSVVRLMFTAFLPDSTGSFTRRLEPVVSDAIYDSKAPNASNLKIVRMDRTAGCVTGGEEIYLLCDKVQKDDIQIRFYEEEENGGVWEGFGDFSPTDVHRQFAIVFKTPKYKDINITKPASVFVQLRRKSDLETSEPKPFLYYPEIKDKEEVQRKRQKLMPNFSDSFGGGSGAGAGGGGMFGSGGGGGGTGSTGPGYSFPHYGFPTYGGITFHPGTTKSNAGMKHGTMDTESKKDPEGCDKSDDKNTVNLFGKVIETTEQDQEPSEATVGNGEVTLTYATGTKEESAGVQDNLFLEKAMQLAKRHANALFDYAVTGDVKMLLAVQRHLTAVQDENGDSVLHLAIIHLHSQLVRDLLEVTSGLISDDIINMRNDLYQTPLHLAVITKQEDVVEDLLRAGADLSLLDRLGNSVLHLAAKEGHDKVLSILLKHKKAALLLDHPNGDGLNAIHLAMMSNSLPCLLLLVAAGADVNAQEQKSGRTALHLAVEHDNISLAGCLLLEGDAHVDSTTYDGTTPLHIAAGRGSTRLAALLKAAGADPLVENFEPLYDLDDSWENAGEDEGVVPGTTPLDMATSWQVFDILNGKPYEPEFTSDDLLAQGDMKQLAEDVKLQLYKLLEIPDPDKNWATLAQKLGLGILNNAFRLSPAPSKTLMDNYEVSGGTVRELVEALRQMGYTEAIEVIQAASSPVKTTSQAHSLPLSPASTRQQIDELRDSDSVCDSGVETSFRKLSFTESLTSGASLLTLNKMPHDYGQEGPLEGKI
- MEK kinase activity of TPL-2ΔC relative to wild type TPL-2 in cells expressing p105 [3]: > 40 fold

B2: recombinant p105808-892 protein (p105 DD) (other)
chain: DMKQLAEDVKLQLYKLLEIPDPDKNWATLAQKLGLGILNNAFRLSPAPSKTLMDNYEVSGGTVRELVEALRQMGYTEAIEVIQAA
- IC50 of inhibition of TPL-2 MEK kinase activity in vitro [4]: 0.55 µM
- effect on Myc-Raf1(CAAX) MEK kinase activity [5]: no effect

B3: Flag-COT(30-467) (enzyme, not shown: small tags and cut ends)
chain: MENLYASEEPAVYEPSLMTMCQDSNQNDERSKSLLLSGQEVPWLSSVRYGTVEDLLAFANHISNTAKHFYGQRPQESGILLNMVITPQNGRYQIDSDVLLIPWKLTYRNIGSDFIPRGAFGKVYLAQDIKTKKRMACKLIPVDQFKPSDVEIQACFRHENIAELYGAVLWGETVHLFMEAGEGGSVLEKLESCGPMREFEIIWVTKHVLKGLDFLHSKKVIHHDIKPSNIVFMSTKAVLVDFGLSVQMTEDVYFPKDLRGTEIYMSPEVILCRGHSTKADIYSLGATLIHMQTGTPPWVKRYPRSAYPSYLYIIHKQAPPLEDIADDCSPGMRELIEASLERNPNHRPRAADLLKHEALNPPREDQPRCTSLDSALLERKRLLSRKELELPENIADSSCTGSTEESEMLKRQRSLYIDLGALAGYFNLVRGPPTLEYG
- binding result [6]: binds

B4: Flag-COT(30-397) (enzyme, not shown: small tags and cut ends)
chain: MENLYASEEPAVYEPSLMTMCQDSNQNDERSKSLLLSGQEVPWLSSVRYGTVEDLLAFANHISNTAKHFYGQRPQESGILLNMVITPQNGRYQIDSDVLLIPWKLTYRNIGSDFIPRGAFGKVYLAQDIKTKKRMACKLIPVDQFKPSDVEIQACFRHENIAELYGAVLWGETVHLFMEAGEGGSVLEKLESCGPMREFEIIWVTKHVLKGLDFLHSKKVIHHDIKPSNIVFMSTKAVLVDFGLSVQMTEDVYFPKDLRGTEIYMSPEVILCRGHSTKADIYSLGATLIHMQTGTPPWVKRYPRSAYPSYLYIIHKQAPPLEDIADDCSPGMRELIEASLERNPNHRPRAADLLKHEALNPPREDQPR
- binding result [6]: binds
